According to patent US20100227853A1, “INHIBITORS OF CYCLIC AMP PHOSPHODIESTERASES” (Trustees of Boston College, priority 2008, published 2010):

Tests used:
PDE4A5 = biological target: T1, PDE4A5 (Rattus norvegicus, UniProt P54748); experiment: 5FOA growth assay in fission yeast strain expressing PDE4A5; format: cell-based; settings: for Composite Z score, PDE4A5: high throughput 5FOA growth screen
T1 construct: targets used in the assays are full-length proteins (as opposed to simply the catalytic domain); expressed in transfected cells; host or cells: Schizosaccharomyces pombe, PDE gene integrated in place of cgs2
T1 sequence (P54748 1-844): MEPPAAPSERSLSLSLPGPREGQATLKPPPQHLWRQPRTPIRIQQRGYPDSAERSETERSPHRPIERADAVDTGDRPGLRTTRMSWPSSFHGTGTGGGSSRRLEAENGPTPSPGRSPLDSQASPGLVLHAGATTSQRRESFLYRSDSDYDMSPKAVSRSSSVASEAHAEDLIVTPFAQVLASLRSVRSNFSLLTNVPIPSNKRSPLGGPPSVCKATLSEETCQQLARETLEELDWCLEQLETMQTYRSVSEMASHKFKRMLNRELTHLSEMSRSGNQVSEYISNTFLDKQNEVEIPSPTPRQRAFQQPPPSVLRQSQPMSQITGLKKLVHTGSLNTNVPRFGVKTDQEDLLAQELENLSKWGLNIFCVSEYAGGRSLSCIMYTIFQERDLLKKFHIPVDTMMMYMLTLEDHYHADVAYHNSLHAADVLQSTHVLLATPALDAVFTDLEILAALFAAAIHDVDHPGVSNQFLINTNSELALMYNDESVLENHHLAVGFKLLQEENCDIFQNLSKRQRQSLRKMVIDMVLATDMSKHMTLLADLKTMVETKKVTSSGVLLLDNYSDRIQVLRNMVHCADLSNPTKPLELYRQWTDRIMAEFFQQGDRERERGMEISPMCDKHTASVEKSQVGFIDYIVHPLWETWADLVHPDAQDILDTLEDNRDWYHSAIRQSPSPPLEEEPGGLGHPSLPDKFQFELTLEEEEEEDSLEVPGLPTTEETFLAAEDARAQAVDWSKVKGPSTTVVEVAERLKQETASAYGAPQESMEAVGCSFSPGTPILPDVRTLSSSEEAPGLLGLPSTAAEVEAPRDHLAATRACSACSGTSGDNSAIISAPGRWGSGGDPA
Protocol: High throughput drug screens were carried out at the Broad Institute's Chemical Biology Program screening facility (Broad Institute, Cambridge, Mass.). Depending upon the strain, cultures were pregrown to exponential phase in EMM complete medium containing from 0.5 to 2.5 mM cAMP to repress fbp1-ura4 transcription. Cells were collected by centrifugation, resuspended in 5FOA medium, and 25 μl were transferred to 384-well microtiter dishes (untreated, with flat clear bottoms) that had been pre-filled with 25 μl 5FOA medium and pre-pinned with 100 nl of compounds (stock solutions were generally 10 mM) from a subset of the Prestwick Bioactive and the Microsource Spectrum compound libraries. Starting cell concentrations ranged from 0.5×10^5 to 4×10^5 cells/ml depending on the screening strain. […] Other positive control dishes contained 5 mM cAMP in the 5FOA medium. Cultures were grown for 48 hours at 30° C., sealed in an airtight container with moist paper towels to prevent evaporation. Optical densities (OD600) of cultures were measured using a microplate reader. Bioinformatic analysis of the results to determine composite Z scores was performed as previously described^30, 31.
Cells were pregrown in EMM medium [MP Biomedicals (Solon, Ohio), 3% glucose, filter-sterilized to avoid carmelization, which would introduce variability into the optical density of the medium] containing from 0 mM to 2.5 mM cAMP (or either 0.5 mM or 1.0 mM cGMP). This was to repress expression of the fbp1-ura4 reporter prior to exposure of cells to 5FOA medium. Cells were grown at 30° C. to exponential phase (approximately 10^7 cells/ml). Cells were collected by centrifugation and resuspended in 5FOA medium, and 25 μl were transferred to 384-well microtiter dishes (untreated, with flat clear bottoms) that had been pre-filled with 25 μl 5FOA medium and pre-pinned with 100 nl of compounds (stock solutions were generally 10 mM). Starting cell concentrations ranged from 0.5×10^5 to 4×10^5 cells/ml depending on the screening strain. […] Other positive control dishes contained 5 mM cAMP in the 5FOA medium for PDEs that lack appropriate control compounds. Cultures were grown for 48 hours at 30° C., sealed in an airtight container with moist paper towels to prevent evaporation. Optical densities (OD600) of cultures were measured using a microplate reader. Bioinformatic analysis of the results to determine composite Z scores was performed as previously described (1, 3).

PDE7A = PDE7A (Homo sapiens, UniProt Q13946); experiment: 5FOA growth assay in fission yeast strain expressing PDE7A; format: cell-based; set-up: targets used in the assays are full-length proteins (as opposed to simply the catalytic domain); expressed in transfected cells; host or cells: Schizosaccharomyces pombe, PDE gene integrated in place of cgs2; settings: for Composite Z score, PDE7A: high throughput 5FOA growth screen; for EC50: OD600 0.6, read-out: ED50 for 5FOA growth assays, PDE7A
Chain of PDE7A (Q13946 whole entry, the tested form may be a part): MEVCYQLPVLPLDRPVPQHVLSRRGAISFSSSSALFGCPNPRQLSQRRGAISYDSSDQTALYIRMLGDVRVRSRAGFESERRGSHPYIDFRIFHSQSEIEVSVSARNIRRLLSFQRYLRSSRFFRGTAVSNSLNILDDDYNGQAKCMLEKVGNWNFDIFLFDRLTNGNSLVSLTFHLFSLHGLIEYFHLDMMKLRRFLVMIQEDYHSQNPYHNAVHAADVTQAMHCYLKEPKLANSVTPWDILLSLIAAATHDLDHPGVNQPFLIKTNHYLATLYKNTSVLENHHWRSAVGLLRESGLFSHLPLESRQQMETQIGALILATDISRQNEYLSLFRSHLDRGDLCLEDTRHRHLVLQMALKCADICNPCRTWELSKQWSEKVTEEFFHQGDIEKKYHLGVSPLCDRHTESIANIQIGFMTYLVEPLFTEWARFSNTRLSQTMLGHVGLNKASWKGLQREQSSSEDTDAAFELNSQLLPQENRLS
Method in brief: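 Fission yeast carrying an fbp1-ura4 reporter were pregrown to exponential phase at 30 °C in EMM with 0–2.5 mM cAMP (or 0.5/1.0 mM cGMP), then moved into 5FOA medium with 100 nl pinned compound (10 mM stocks). Growth was read as OD600 after 48 h at 30 °C and scored as composite Z scores.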

Composite Z score, PDE4A5 (PDE4A5)	Composite Z score, PDE7A (PDE7A)	SMILES	further results
−0.102	−0.757	CC(C)CC(Nc1ncnc2sc3c(c12)CCC3)C(=O)O (stereo not shown) [Compound 2012H20]	–
0.7964	−1.371	Cc1c(C(=O)N(C)Cc2ccccc2)sc2ncnc(N3CCN(c4ccccc4)CC3)c12 [Compound 2041G21]	–
36.026	−0.794	CCC1CCc2c(sc3ncnc(N4CCOCC4)c23)C1 (stereo not shown) [BC33]	EC50 (PDE7A): > 200 µM
−10.26	1.5462	CCCCN(CC)C(=O)c1sc2ncnc(N3CCN(c4ccc(OC)cc4)CC3)c2c1C [Compound 2007H06]	–
−4.881	0.03	Cc1nc(NCCc2ccccc2)c2c3c(sc2n1)CCCC3 [Compound 2008G09]	–
0.9752	0.6002	CCN(CC)c1nc(C)nc2sc(C(=O)Nc3cc(Cl)ccc3OC)c(C)c12 [Compound 2040L12]	–
–	–	C=Cn1c2ccccc2c2nc3ccccc3nc21 [2033, H06]	1 Assay (20 uM) 4A5 (PDE4A5; PDE 4A5): 66.58 ND ND ND ND; 1 Assay (20 uM) 7A (PDE7A; PDE 7A): 0.63 ND ND ND ND
–	–	Cc1ccc2c(c1)CCC1CC(=O)CC[C@]21C (stereo partly shown) [Compound 2158J12]	2 Assay (2 uM), 4A5 (PDE4A5; PDE 4A5): 7.00; 1 Assay (20 uM) 4A5 (PDE4A5; PDE 4A5): 113.27; 2 Assay (2 uM), 7A (PDE7A; PDE 7A): 29.01; 1 Assay (20 uM) 7A (PDE7A; PDE 7A): 74.45
–	–	CCCCn1c2ccccc2c2nc3ccccc3nc21 [2013, I20]	1 Assay (20 uM) 4A5 (PDE4A5; PDE 4A5): 71.82 ND ND ND ND; 1 Assay (20 uM) 7A (PDE7A; PDE 7A): −0.84 ND ND ND ND
–	55.035	Cc1sc2ncnc(Nc3ccccc3)c2c1C [BC64]	EC50 (PDE7A): > 200 µM
0.289	1.8846	O=C(O)CCNc1ncnc2sc3c(c12)CCCC3 [Compound 2012O16]	–
–	–	COC(=O)C1=C(C)N(c2ccccc2Cl)C(=O)/C1=C\c1cccs1 [Compound 27]	2 Assay (2 uM), 4A5 (PDE4A5): 12.63; 1 Assay (20 uM) 4A5 (PDE4A5): 65.67; 2 Assay (2 uM), 7A (PDE7A): 5.07; 1 Assay (20 uM) 7A (PDE7A): 2.34
111.95	123.57	Cc1c(C(=O)Nc2ccc(F)cc2F)sc2ncnc(N(C)c3ccccc3)c12 [Compound 58-9]	–
−0.705	−1.037	CCN(CC)c1nc(C)nc2sc(C(=O)N3CCCCCC3)c(C)c12 [Compound 2040N12]	–
10.539	−1.377	CCC(C)NC(=O)c1sc2nc(C)nc(N(C)c3ccc(C(C)C)cc3)c2c1C (stereo not shown) [Compound 2041K04]	–
−0.22	0.7038	CCNc1nc(SCC(=O)OCC)nc2sc3c(c12)CCC(C)C3 (stereo not shown) [Compound 2053H16]	–
1.7466	−1.481	Cc1nc(N2CCCCC2)c2c(C)c(C(=O)Nc3cccc(C(F)(F)F)c3)sc2n1 [Compound 2040F10]	–
–	–	Cc1ccc2c(c1)c1nc3ccccc3nc1n2C(C)C [Compound 41]	1 Assay (20 uM) 4A5 (PDE4A5; PDE 4A5): 84.08; 1 Assay (20 uM) 7A (PDE7A; PDE 7A): 0.31
−0.722	−0.598	Cc1c(C(=O)NCCC(C)C)sc2ncnc(N3CCOCC3)c12 [Compound 2040F13]	–
−4.329	0.9074	O=C(/C=C/c1ccccc1)Nc1ncnc2sc3c(c12)CCC3 [Compound 2008K11]	–

Composite Z score, PDE4A5 (PDE4A5)	Composite Z score, PDE7A (PDE7A)	SMILES	further results
1.0728	0.1836	CCNc1nc(SCC(=O)NC(=O)NCc2ccccc2)nc2sc3c(c12)CCN(C)C3 [Compound 2054N05]	–
33.878	0.4852	COc1cccc(NC(=O)c2sc3ncnc(N4CCc5ccccc5C4)c3c2C)c1 [Compound 2041K21]	–
–	–	COC(=O)C1=C(C)N(C2CCCCC2)C(=O)/C1=C\c1cccs1 [Compound 22]	2 Assay (2 uM), 4A5 (PDE4A5): 13.66; 1 Assay (20 uM) 4A5 (PDE4A5): −0.06; 2 Assay (2 uM), 7A (PDE7A): 57.22; 1 Assay (20 uM) 7A (PDE7A): 132.82
–	–	COC(=O)C1/C(=C/c2cccc(OC)c2O)C(=O)N(c2ccccc2F)C1C (stereo not shown) [2008, C21]	1 Assay (20 uM) 4A5 (PDE4A5): 1.80 ND ND ND ND; 1 Assay (20 uM) 7A (PDE7A): −0.08 ND ND ND ND
63.222	177.31	CCN(CC)c1ncnc2sc3c(c12)CCCC3 [BC44]	–
−4.733	−0.445	c1nc(NCCCN2CCOCC2)c2c3c(sc2n1)CCCC3 [Compound 2051N22]	–
–	–	COC(=O)C1=C(C)N(c2ccccc2)/C(=C/c2cccs2)C1=O [2008, K19]	1 Assay (20 uM) 4A5 (PDE4A5): 0.06 ND ND ND ND; 1 Assay (20 uM) 7A (PDE7A): 2.43 ND ND ND ND
1.3091	1.3653	CCOC(=O)c1ccccc1NC(=O)c1sc2nc(C)nc(N(CC)CC)c2c1C [Compound 2040P12]	–
−0.897	−0.593	CCOC(CNc1nc(C)nc2sc3c(c12)CCCC3)OCC [Compound 2040D04]	–
3.411	1.3549	Cc1c(C(=O)NCCC2CCCCC2)sc2ncnc(N3CCCCC3C)c12 (stereo not shown) [Compound 2040H10]	–
–	–	CC(C)Cn1c2ccc(Br)cc2c2nc3ccccc3nc21 [2015, L04]	1 Assay (20 uM) 4A5 (PDE4A5; PDE 4A5): 57.60 ND ND ND ND; 1 Assay (20 uM) 7A (PDE7A; PDE 7A): −0.79 ND ND ND ND
–	–	C=CCn1c2ccc(Br)cc2c2nc3ccccc3nc21 [2017, C18]	1 Assay (20 uM) 4A5 (PDE4A5; PDE 4A5): 69.70 ND ND ND ND; 1 Assay (20 uM) 7A (PDE7A; PDE 7A): −1.58 ND ND ND ND
–	–	COC(=O)C1=C(C)N(c2ccc(C(C)C)cc2)C(=O)/C1=C\c1ccco1 [2008, 019]	1 Assay (20 uM) 4A5 (PDE4A5): 1.73 ND ND ND ND; 1 Assay (20 uM) 7A (PDE7A): 2.78 ND ND ND ND
20.422	26.421	COc1ccc(CCNc2ncnc3sc4c(c23)CCCC4)cc1 [Compound 2012B19]	–
2.5342	1.5898	CCOC(=O)c1sc2nc(Cc3ccccc3)nc(NCCC3CCCCC3)c2c1C [Compound 2040F07]	–
1.1627	0.7201	COc1ccc(NC(=O)c2sc3nc(C)nc(N(C)c4ccc(C(C)C)cc4)c3c2C)c(OC)c1 [Compound 2041I04]	–
−0.227	−0.165	CCN(CC)c1ncnc2sc(C(=O)N(C)C3CCCCC3)c(C)c12 [Compound 2040J12]	–
−10.3	−0.759	CCOC(=O)c1sc2nc(C)nc(N3CCC(C)CC3)c2c1C [Compound 2007D06]	–
–	–	N#Cc1sc2sc(C#N)c(-c3ccco3)c2c1N [Compound 30]	2 Assay (2 uM), 4A5 (PDE4A5): 2.79; 1 Assay (20 uM) 4A5 (PDE4A5): 2.14
